# In US8389557B2, “Triazole derivatives useful as Axl inhibitors” (Rigel Pharmaceuticals, Inc., priority 2005, dated 2013):
# Target: T1, Axl (Homo sapiens, UniProt P30530)
# T1 construct: endogenous in cells; host or cells: HeLa cells
# T1 sequence (P30530 26-894): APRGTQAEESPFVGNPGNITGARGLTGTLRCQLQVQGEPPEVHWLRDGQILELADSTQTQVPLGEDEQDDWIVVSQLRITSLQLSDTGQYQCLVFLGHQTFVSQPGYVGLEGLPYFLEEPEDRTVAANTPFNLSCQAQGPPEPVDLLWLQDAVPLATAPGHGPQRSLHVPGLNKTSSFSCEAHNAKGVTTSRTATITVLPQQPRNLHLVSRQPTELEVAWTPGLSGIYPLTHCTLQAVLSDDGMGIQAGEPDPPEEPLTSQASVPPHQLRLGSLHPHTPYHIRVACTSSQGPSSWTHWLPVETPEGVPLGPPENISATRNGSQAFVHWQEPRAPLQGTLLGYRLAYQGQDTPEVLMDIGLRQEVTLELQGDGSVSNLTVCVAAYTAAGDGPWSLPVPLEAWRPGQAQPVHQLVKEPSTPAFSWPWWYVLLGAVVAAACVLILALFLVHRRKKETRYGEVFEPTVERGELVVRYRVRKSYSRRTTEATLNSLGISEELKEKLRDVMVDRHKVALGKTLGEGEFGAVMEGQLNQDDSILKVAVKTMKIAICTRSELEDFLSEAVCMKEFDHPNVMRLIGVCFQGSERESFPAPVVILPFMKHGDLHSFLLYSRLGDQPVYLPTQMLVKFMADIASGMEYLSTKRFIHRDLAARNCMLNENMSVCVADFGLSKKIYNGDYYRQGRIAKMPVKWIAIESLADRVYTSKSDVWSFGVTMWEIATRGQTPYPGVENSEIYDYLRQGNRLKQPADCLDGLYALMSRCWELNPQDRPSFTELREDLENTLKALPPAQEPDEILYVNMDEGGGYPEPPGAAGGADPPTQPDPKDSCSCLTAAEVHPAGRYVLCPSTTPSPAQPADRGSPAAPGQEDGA
# Assay: Phospho-Akt in-cell Western assay (inhibition of Axl activity)
# Assay type: cell-based
# Outline: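 HeLa cells on poly-L-lysine, starved 24 h in 0.5% FCS DMEM with Axl/Fc 500 ng/mL, pre-treated with compound 1 h at 37° C. Axl stimulated 5 min by anti-Axl/anti-mouse antibody cross-linking. Fixed cells probed with anti-phospho-Akt and HRP secondary, chemiluminescence read.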
# [1] = Table 3, Hela cells, Axl antibody cross-linking stimulation, phospho-Akt chemiluminescence
# [2] = Table 5, Hela cells, Axl antibody cross-linking stimulation, phospho-Akt chemiluminescence
# [3] = inhibition of Axl activity, Table 1
# [4] = inhibition of Axl activity, phospho-Akt in-cell Western assay, Table 1
# [5] = Table 2, Hela cells, Axl antibody cross-linking stimulation, phospho-Akt chemiluminescence
structure (smiles),measurement,setting,value
"Nc1nc(Nc2ccc(OCCn3ccnc3)cc2)nn1C(=O)c1ccc2cc[nH]c2c1 [compound 375, 5-amino-1-(1H-indol-6-yl)carbonyl-3-[4-[2-(imidazol-1-yl)ethoxy]phenylamino]-1H-1,2,4-triazole]",IC50,[1],< 1 µM
"CC1(C)Oc2ccc(C(=O)n3nc(Nc4ccc(OCCN5CCCCC5)cc4)nc3N)cc2NC1=O [compound 78, 5-amino-1-(2,2-dimethyl-2H-benzo[b][1,4]oxazin-3(4H)-on-6-yl)carbonyl-3-[4-[2-(piperidin-1-yl)ethoxy]phenylamino]-1H-1,2,4-triazole]",IC50,[1],< 1 µM
CC(C)(C)OC(=O)NC1CCOc2ccc(Nc3nc(N)n(C(=O)c4ccc(OC(C)(C)C)cc4)n3)cc21 (stereo not shown) [compound 275],IC50,[2],> 20 µM
"Cc1cccc(C(=O)n2nc(Nc3ccc4c(c3)NCCO4)nc2N)c1 [compound 215, 5-amino-3-[(3,4-dihydrobenzo[1,4]oxazin-6-yl)amino]-1-(3-methylphenyl)carbonyl-1H-1,2,4-triazole]",IC50,[2],> 20 µM
"CC(=O)Nc1ccc(C(=O)n2nc(Nc3ccc4c(c3)OCCO4)nc2N)cc1 [compound 246, 1-[(4-Acetylamino)phenyl]carbonyl-5-amino-3-(1,4-benzodioxan-6-yl)-amino-1H-1,2,4-triazole]",IC50,[3],1 to 10 µM
"Nc1nc(Nc2ccc(OCCN3CCCC3)cc2)nn1C(=O)c1ccc(-n2ccnc2)cc1 [compound 268, 5-amino-1-(4-(imidazol-1-yl)phenyl)carbonyl-3-[4-[2-(pyrrolidin-1-yl)ethoxy]phenylamino]-1H-1,2,4-triazole]",IC50,[4],< 1 µM
"COc1cccc(C(=O)n2nc(Nc3ccc(OCCN4CCCC4)cc3)nc2N)c1 [compound #14, 5-Amino-1-(3-methoxyphenyl)carbonyl-3-[4-[2-(pyrrolidin-1-yl)ethoxy]phenylamino]-1H-1,2,4-triazole]",IC50,[4],< 1 µM
"CC(C)Oc1ccc(Nc2nc(N)nn2C(=O)c2ccc3c(c2)NC(=O)C(C)(C)O3)cc1 [compound 66, 3-amino-1-(2,2-dimethyl-2H-benzo[b][1,4]oxazin-3(4H)-on-6-yl)carbonyl-5-(4-(iso-propoxy)phenyl)amino-1H-1,2,4-triazole]",IC50,"Table 4, Hela cells, Axl antibody cross-linking stimulation, phospho-Akt chemiluminescence",1 to 10 µM
"CC(C)Oc1ccc(C(=O)n2nc(Nc3cccc(OCC(F)(F)F)c3)nc2N)cc1 [compound 139, 5-amino-1-(4-(iso-propoxy)phenyl)carbonyl-3-[3-(2,2,2-trifluoroethoxy)phenylamino]-1H-1,2,4-triazole]",IC50,[3],> 20 µM
"COc1cccc(C(=O)n2nc(Nc3ccc(N4CCOCC4)cc3)nc2N)c1 [compound 81, 5-amino-1-(3-(methoxy)phenyl)carbonyl-3-(4-(morpholin-4-yl)phenylamino)-1H-1,2,4-triazole]",IC50,[3],1 to 10 µM
"CC(C)Oc1cccc(C(=O)n2nc(Nc3ccc(OCCN4CCOCC4)cc3)nc2N)c1 [compound 169, 5-amino-1-(3-(iso-propoxy)phenyl)carbonyl-3-[4-[2-(morpholin-4-yl)ethoxy]phenylamino]-1H-1,2,4-triazole]",IC50,[3],< 1 µM
"CC(C)(C)Oc1ccc(C(=O)n2nc(Nc3ccc(N4CCCC4)cc3)nc2N)cc1 [compound 291, 5-amino-1-(4-(tert-butoxy)phenyl)carbonyl-3-[4-(pyrrolidin-1-yl)phenylamino]-1H-1,2,4-triazole]",IC50,[4],> 20 µM
"Nc1nc(Nc2ccc(OCCN3CCCC3)c(F)c2)n(C(=O)c2ccc(N3CCOCC3)cc2)n1 [compound 304, 3-amino-1-(4-(morpholin-4-yl)phenyl)carbonyl-5-[3-fluoro-4-[2-(pyrrolidin-1-yl)ethoxy]phenylamino]-1H-1,2,4-triazole]",IC50,[5],10 to 20 µM
"COc1ccc(C(=O)n2nc(Nc3ccc(OCCN4CCCC4)cc3)nc2N)cc1OC [compound 198, 5-amino-1-(3,4-(dimethoxy)phenyl)carbonyl-3-[4-[2-(pyrrolidin-1-yl)ethoxy]phenylamino]-1H-1,2,4-triazole]",IC50,[4],> 20 µM
"COC(=O)c1cccc(C(=O)n2nc(Nc3ccc(OCCN4CCCCC4)cc3)nc2N)c1 [compound 79, 5-amino-1-(3-(methoxycarbonyl)phenyl)carbonyl-3-[4-[2-(piperidin-1-yl)ethoxy]phenylamino]-1H-1,2,4-triazole]",IC50,[3],1 to 10 µM
"Nc1nc(Nc2ccc(OCCN3CCCC3)cc2)nn1C(=O)c1c(F)cccc1F [compound 289, 5-amino-1-(2,6-difluorophenyl)carbonyl-3-[4-[2-(pyrrolidin-1-yl)ethoxy]phenylamino]-1H-1,2,4-triazole]",IC50,[4],> 20 µM
"CN(C)c1cccc(C(=O)n2nc(Nc3ccc(OCCN4CCCCC4)cc3)nc2N)c1 [compound #11, 5-Amino-1-(3-(dimethylamino)phenyl)carbonyl-3-[4-[2-(piperidin-1-yl)ethoxy]phenylamino]-1H-1,2,4-triazole]",IC50,[4],< 1 µM
"CC(C)c1ccc(C(=O)n2nc(Nc3ccc(OCCN4CCCCC4)cc3)nc2N)cc1 [compound 51, 5-amino-1-(4-(iso-propyl)phenyl)carbonyl-3-[4-[2-(piperidin-1-yl)ethoxy]phenylamino]-1H-1,2,4-triazole]",IC50,[3],< 1 µM
"Cc1ccc(C(=O)n2nc(Nc3ccc(N4CCOCC4)cc3)nc2N)cc1 [compound 54, 5-amino-1-(4-(methyl)phenyl)carbonyl-3-(4-(morpholin-4-yl)phenylamino)-1H-1,2,4-triazole]",IC50,[3],< 1 µM
"Nc1nc(Nc2ccc(OCCN3CCCC3)cc2)nn1C(=O)c1cccc(N2CCOCC2)c1 [compound 331, 5-amino-1-(3-(morpholin-4-yl)phenyl)carbonyl-3-[4-[2-(pyrrolidin-1-yl)ethoxy]phenylamino]-1H-1,2,4-triazole]",IC50,[4],< 1 µM
"CN(C)c1cccc(C(=O)n2nc(Nc3ccc(OCCn4ccnc4)cc3)nc2N)c1 [compound 374, 5-amino-1-(3-(dimethylamino)phenyl)carbonyl-3-[4-[2-(imidazol-1-yl)ethoxy]phenylamino]-1H-1,2,4-triazole]",IC50,[4],1 to 10 µM
"CC(C)Oc1ccc(Nc2nc(N)n(C(=O)c3cccc([N+](=O)[O-])c3)n2)cc1 [compound 71, 5-amino-3-[4-(iso-propoxy)phenylamino]-1-(3-(nitro)phenyl)carbonyl-1H-1,2,4-triazole]",IC50,[3],1 to 10 µM
"Cc1ccc(C(=O)n2nc(Nc3ccccc3O)nc2N)cc1 [compound 211, 5-amino-3-[2-(hydroxyl)phenylamino]-1-(4-methylphenyl)carbonyl-1H-1,2,4-triazole]",IC50,[3],> 20 µM
"CC(C)Oc1ccc(C(=O)n2nc(Nc3ccc(OCCN(C)C)cc3)nc2N)cc1 [compound 85, 5-amino-3-[4-[2-(dimethylamino)ethoxy]phenylamino]-1-(4-(iso-propoxy)phenyl)carbonyl-1H-1,2,4-triazole]",IC50,[4],< 1 µM
"CC(C)Oc1ccc(C(=O)n2nc(N)nc2Nc2ccc(N3CCCC3)cc2)cc1 [compound 294, 3-amino-1-(4-(iso-propoxy)phenyl)carbonyl-5-(4-(pyrrolidin-1-yl)phenylamino]-1H-1,2,4-triazole]",IC50,[5],> 20 µM
"Nc1nc(Nc2ccc(OCCN3CCCC3)cc2)nn1C(=O)c1c[nH]c2ccccc12 [compound 366, 5-amino-1-(1H-indol-3-yl)carbonyl-3-[4-[2-(pyrrolidin-1-yl)ethoxy]phenylamino]-1H-1,2,4-triazole]",IC50,[1],1 to 10 µM
"COCOc1cccc(Nc2nc(N)n(C(=O)c3cccc(C)c3)n2)c1 [compound 216, 5-amino-3-(3-methoxymethoxy)phenylamino-1-(3-methylphenyl)carbonyl-1H-1,2,4-triazole]",IC50,[3],> 20 µM
"Nc1nc(Nc2ccc(OCCN3CCCCC3)cc2)nn1C(=O)c1ccc(C2CCCCC2)cc1 [compound 62, 5-amino-1-(4-(cyclohexyl)phenyl)carbonyl-3-[4-[2-(piperidin-1-yl)ethoxy]phenylamino]-1H-1,2,4-triazole]",IC50,[3],1 to 10 µM
"Cc1ccc(C(=O)n2nc(Nc3ccc(F)cc3)nc2N)cc1 [compound 123, 5-amino-3-[4-(fluoro)phenylamino]-1-(4-(methyl)phenyl)carbonyl-1H-1,2,4-triazole]",IC50,[3],10 to 20 µM
"Cc1cccc(C(=O)n2nc(Nc3ccc4c(c3)NC(=O)C(F)(F)O4)nc2N)c1 [compound 64, 5-amino-3-(2,2-difluoro-2H-benzo[b][1,4]oxazin-3(4H)-on-6-yl)amino-1-(3-(methyl)phenyl)carbonyl-1H-1,2,4-triazole]",IC50,[2],> 20 µM
"Cc1cccc(NC(=O)n2nc(Nc3ccc(OCCN4CCCC4)cc3)nc2N)c1 [compound 31, 5-amino-N-(3-methylphenyl)-3-[4-[2-(pyrrolidin-1-yl)ethoxy]phenylamino]-1H-1,2,4-triazole-1-carboxamide]",IC50,"Table 7, Hela cells, Axl antibody cross-linking stimulation, phospho-Akt chemiluminescence",< 1 µM
